# Read-outs that look alike come from different tables or passages of the source.
# What was measured:
# Type in all cases: cell-based
# [1] = test system: C. albicans wildtype and DNA repair mutants; experiment: Fungicidal killing, CFU assay; conditions: C. albicans rad50/rad50 and rad52/rad52, 3 hours of drug exposure
# Description: Overnight yeast cultures were diluted into the indicated media and grown to an OD600 of 0.2, at which point the AFs were added. Colony forming units (CFU) were measured by plating six serial dilutions onto YPD agar plates.
# Overnight yeast cultures were diluted into the indicated media and grown to an OD600 of 0.2, at which point the AFs were added. Colony forming units (CFU) were measured by plating six serial dilutions onto YPD agar plates. Cells treated with MCZ were washed before serial dilution to stop growth inhibition associated with high concentrations of MCZ. CFU were counted after three days of incubation on agar plates. When indicated, thiourea (Fluka) was added 30 min prior to the addition of AFs. HPF (10 μM) (Invitrogen) and Mito Tracker (1 μM) (Invitrogen) dyes were added to PBS-washed cells at the indicated time points and incubated for 30 min prior to flow cytometry measurements, which were taken on the FACSCalibur (Becton-Dickinson). All experiments described in this section were conducted in 0.5 ml of SDC in 24-well plates incubated at 900 rpm and 37° C. for C. albicans and 30° C. and 300 rpm for S. cerevisiae. TUNEL assays were conducted as previously described (Ribeiro et al., 2006) and are described in detail in the TUNEL section of the Experimental Procedures.
# [2] = test system: S. cerevisiae wildtype and deletion strains
# [3] = test system: S. cerevisiae single-deletion yeast strains; experiment: High-throughput 96-well screen of AF sensitivity of single-gene knockouts (CFU at start and after 8 hours); conditions: S. cerevisiae PAB101, WT
# Description: To identify genes critical to AF action, the AF sensitivity of single-gene knockouts identified through the common transcriptional analysis were identified. In the first pass-through, 56 testable genes were identified. This set was later expanded to include targets identified through phenotypic analysis and metabolomic profiling, for a total of 84 target genes (Table 2). The initial 56 targets were tested using a rapid high-throughput 96-well assay with AMB and MCZ to identify single-gene knockouts with elevated resistance to AFs (Table 2). Knockouts that were more resistant to at least one of the AFs were tested individually using the 24-well colony forming (CF) assay. Target genes selected after the initial 56 strains were assayed individually using the 24-well CF assay.
# The first 56 S. cerevisiae strains were acquired from the deletion library and stored in 96-well plates in replicates of three. To start the assay, the plates were defrosted and 10 μl of stored cells were inoculated into 100 μl of fresh synthetic dextrose complete (SDC) media for 16 hours. These overnight cultures were diluted into a fresh 96-well plate with 100 μl of SDC to achieve an OD600 of approximately 0.2. Colony forming units (CFU) in each well were measured at the start of the assay and after 8 hours of incubation. The AF susceptibility of each strain was compared to that of wildtype. Strains with significant susceptibility differences from wildtype were assayed in 0.5 ml of SDC media using the 24-well plate CF assay described above.
smiles,measurement,setting,value
"C[C@@H]1[C@H](O)[C@@H](C)/C=C/C=C/C=C/C=C/C=C/C=C/C=C/[C@H](O[C@@H]2O[C@H](C)[C@@H](O)[C@H](N)[C@@H]2O)C[C@@H]2O[C@](O)(C[C@@H](O)C[C@@H](O)[C@H](O)CC[C@@H](O)C[C@@H](O)CC(=O)O[C@H]1C)C[C@H](O)[C@H]2C(=O)O [AMB, amphotericin B]",susceptibility of DSBR mutants compared to wildtype,[1],particularly susceptible
same,additive resistance on deleting the remaining citrate synthases in the cit3 background,[2]; S. cerevisiae CIT1/CIT2 deletions in cit3 background,additive resistance
same,"CFU (24-well colony forming assay), AF susceptibility vs wildtype","[2]; S. cerevisiae PAB101, WT",Normal
same,"CFU (24-well colony forming assay), AF susceptibility vs wildtype","[2]; S. cerevisiae PAB102, HSP104 deletion",Normal
same,"CFU (24-well colony forming assay), AF susceptibility vs wildtype","[2]; S. cerevisiae PAB103, SDH2 deletion",Resistant (″Resistant″ or ″Sensitive″ indicate at least a 5-fold CFU difference from wildtype at the final time point)
same,"CFU (24-well colony forming assay), AF susceptibility vs wildtype","[2]; S. cerevisiae PAB104, FRE8 deletion",Resistant (″Resistant″ or ″Sensitive″ indicate at least a 5-fold CFU difference from wildtype at the final time point)
same,"CFU (24-well colony forming assay), AF susceptibility vs wildtype","[2]; S. cerevisiae PAB105, CHA4 deletion",Resistant (″Resistant″ or ″Sensitive″ indicate at least a 5-fold CFU difference from wildtype at the final time point)
same,"CFU (24-well colony forming assay), AF susceptibility vs wildtype","[2]; S. cerevisiae PAB106, FMS1 deletion",Resistant (″Resistant″ or ″Sensitive″ indicate at least a 5-fold CFU difference from wildtype at the final time point)
same,"CFU (24-well colony forming assay), AF susceptibility vs wildtype","[2]; S. cerevisiae PAB107, NDE1 deletion",Resistant (″Resistant″ or ″Sensitive″ indicate at least a 5-fold CFU difference from wildtype at the final time point)
same,"CFU (24-well colony forming assay), AF susceptibility vs wildtype","[2]; S. cerevisiae PAB108, ALD3 deletion",Normal
same,"CFU (24-well colony forming assay), AF susceptibility vs wildtype","[2]; S. cerevisiae PAB112, MNE1 deletion",Resistant (″Resistant″ or ″Sensitive″ indicate at least a 5-fold CFU difference from wildtype at the final time point)
same,"CFU (24-well colony forming assay), AF susceptibility vs wildtype","[2]; S. cerevisiae PAB113, FUM1 deletion",Resistant (″Resistant″ or ″Sensitive″ indicate at least a 5-fold CFU difference from wildtype at the final time point)
same,"CFU (24-well colony forming assay), AF susceptibility vs wildtype","[2]; S. cerevisiae PAB114, TPK2 deletion",Resistant (″Resistant″ or ″Sensitive″ indicate at least a 5-fold CFU difference from wildtype at the final time point)
same,"CFU (24-well colony forming assay), AF susceptibility vs wildtype","[2]; S. cerevisiae PAB116, ISU1 deletion",Normal
same,"CFU (24-well colony forming assay), AF susceptibility vs wildtype","[2]; S. cerevisiae PAB117, CYC7 deletion",Normal
same,"CFU (24-well colony forming assay), AF susceptibility vs wildtype","[2]; S. cerevisiae PAB119, CIT2 deletion",Resistant (″Resistant″ or ″Sensitive″ indicate at least a 5-fold CFU difference from wildtype at the final time point)
same,"CFU (24-well colony forming assay), AF susceptibility vs wildtype","[2]; S. cerevisiae PAB120, HSP30 deletion",Normal
same,"CFU (24-well colony forming assay), AF susceptibility vs wildtype","[2]; S. cerevisiae PAB121, SDH1 deletion",Resistant (″Resistant″ or ″Sensitive″ indicate at least a 5-fold CFU difference from wildtype at the final time point)
same,"CFU (24-well colony forming assay), AF susceptibility vs wildtype","[2]; S. cerevisiae PAB122, TPK3 deletion",Resistant (″Resistant″ or ″Sensitive″ indicate at least a 5-fold CFU difference from wildtype at the final time point)
same,"CFU (24-well colony forming assay), AF susceptibility vs wildtype","[2]; S. cerevisiae PAB123, ISU2 deletion",Normal
same,"CFU (24-well colony forming assay), AF susceptibility vs wildtype","[2]; S. cerevisiae PAB124, TPK1 deletion",Resistant (″Resistant″ or ″Sensitive″ indicate at least a 5-fold CFU difference from wildtype at the final time point)
same,"CFU (24-well colony forming assay), AF susceptibility vs wildtype","[2]; S. cerevisiae PAB132, CIT3 deletion",Resistant (″Resistant″ or ″Sensitive″ indicate at least a 5-fold CFU difference from wildtype at the final time point)
same,"CFU (24-well colony forming assay), AF susceptibility vs wildtype","[2]; S. cerevisiae PAB135, NDI1 deletion",Resistant (″Resistant″ or ″Sensitive″ indicate at least a 5-fold CFU difference from wildtype at the final time point)
same,"CFU (24-well colony forming assay), AF susceptibility vs wildtype","[2]; S. cerevisiae PAB145, CIT1 deletion",Resistant (″Resistant″ or ″Sensitive″ indicate at least a 5-fold CFU difference from wildtype at the final time point)
same,"CFU (24-well colony forming assay), AF susceptibility vs wildtype","[2]; S. cerevisiae PAB149, YAK1 deletion",Sensitive (″Resistant″ or ″Sensitive″ indicate at least a 5-fold CFU difference from wildtype at the final time point)
same,"CFU (24-well colony forming assay), AF susceptibility vs wildtype","[2]; S. cerevisiae PAB153, SHO1 deletion",Sensitive (″Resistant″ or ″Sensitive″ indicate at least a 5-fold CFU difference from wildtype at the final time point)
same,"CFU (24-well colony forming assay), AF susceptibility vs wildtype","[2]; S. cerevisiae PAB155, FBP1 deletion",Sensitive (″Resistant″ or ″Sensitive″ indicate at least a 5-fold CFU difference from wildtype at the final time point)
same,"CFU (24-well colony forming assay), AF susceptibility vs wildtype","[2]; S. cerevisiae PAB158, MSN4 deletion",Normal
same,"CFU (24-well colony forming assay), AF susceptibility vs wildtype","[2]; S. cerevisiae PAB161, MSN2 deletion",Normal
same,"CFU (24-well colony forming assay), AF susceptibility vs wildtype","[2]; S. cerevisiae PAB162, YAP1 deletion",Normal
same,"CFU (24-well colony forming assay), AF susceptibility vs wildtype","[2]; S. cerevisiae PAB163, CIN5 deletion",Normal
same,"CFU (24-well colony forming assay), AF susceptibility vs wildtype","[2]; S. cerevisiae PAB164, Pde2 deletion",Normal
same,"CFU (24-well colony forming assay), AF susceptibility vs wildtype","[2]; S. cerevisiae PAB165, USV1 deletion",Normal
same,"CFU (24-well colony forming assay), AF susceptibility vs wildtype","[2]; S. cerevisiae PAB166, CAD1 deletion",Normal
same,"CFU (24-well colony forming assay), AF susceptibility vs wildtype","[2]; S. cerevisiae PAB167, RIM101 deletion",Normal
same,"CFU (24-well colony forming assay), AF susceptibility vs wildtype","[2]; S. cerevisiae PAB168, RAS1 deletion",Resistant (″Resistant″ or ″Sensitive″ indicate at least a 5-fold CFU difference from wildtype at the final time point)
same,"CFU (24-well colony forming assay), AF susceptibility vs wildtype","[2]; S. cerevisiae PAB169, HYR1 deletion",Resistant (″Resistant″ or ″Sensitive″ indicate at least a 5-fold CFU difference from wildtype at the final time point)
same,"CFU (24-well colony forming assay), AF susceptibility vs wildtype","[2]; S. cerevisiae PAB170, CRZ1 deletion",Normal
same,"CFU (24-well colony forming assay), AF susceptibility vs wildtype","[2]; S. cerevisiae PAB171, RAS2 deletion",Resistant (″Resistant″ or ″Sensitive″ indicate at least a 5-fold CFU difference from wildtype at the final time point)
same,"CFU (24-well colony forming assay), AF susceptibility vs wildtype","[2]; S. cerevisiae PAB172, XBP1 deletion",Normal
same,"CFU (24-well colony forming assay), AF susceptibility vs wildtype","[2]; S. cerevisiae PAB173, SRV2 deletion",Normal
same,"CFU (24-well colony forming assay), AF susceptibility vs wildtype","[2]; S. cerevisiae PAB174, TPS3 deletion",Resistant (″Resistant″ or ″Sensitive″ indicate at least a 5-fold CFU difference from wildtype at the final time point)
same,"CFU (24-well colony forming assay), AF susceptibility vs wildtype","[2]; S. cerevisiae PAB175, TPS2 deletion",Sensitive (″Resistant″ or ″Sensitive″ indicate at least a 5-fold CFU difference from wildtype at the final time point)
same,"CFU (24-well colony forming assay), AF susceptibility vs wildtype","[2]; S. cerevisiae PAB177, SOD2 deletion",Normal
same,"CFU (24-well colony forming assay), AF susceptibility vs wildtype","[2]; S. cerevisiae PAB178, CTA1 deletion",Normal
same,"CFU (24-well colony forming assay), AF susceptibility vs wildtype","[2]; S. cerevisiae PAB179, CTT1 deletion",Normal
same,"CFU (24-well colony forming assay), AF susceptibility vs wildtype","[2]; S. cerevisiae PAB180, MET1 deletion",Normal
same,"CFU (24-well colony forming assay), AF susceptibility vs wildtype","[2]; S. cerevisiae PAB181, TVP18 deletion",Normal
same,"CFU (24-well colony forming assay), AF susceptibility vs wildtype","[2]; S. cerevisiae PAB182, PML39 deletion",Normal
same,"CFU (24-well colony forming assay), AF susceptibility vs wildtype","[2]; S. cerevisiae PAB183, VPS9 deletion",Normal
same,higher drug concentration required by citrate synthase triple mutant to achieve the sensitivity of the single mutants,"[2]; S. cerevisiae cit1 cit2 cit3 triple mutant, 3 hours of drug exposure",more than 8 fold
same,reduction of killing at 3 hours by thiourea,"[2]; S. cerevisiae, 50 mM thiourea for 30 minutes prior to the addition of AF drugs",~15 fold
same,"96 Well Screen, AF susceptibility vs wildtype",[3],Normal

# From patent US20150366890A1, “COMPOSITIONS AND METHODS FOR TREATING FUNGAL INFECTIONS” (TRUSTEES OF BOSTON UNIVERSITY, priority 2013, published 2015)
